Test system: 855422-203-R-J1-PDC complex spheroids, viability
Assay: Anticancer human tumor 855422-203-R-J1-PDC patient-derived bladder carcinoma cell line growth inhibition [CLK]
Conditions: for IC50: curve of first compound; for viability, T/C: stronger effect = lower value
Outline: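 Multi-cell-type spheroids combined patient-derived tumor cells with HUVEC endothelial cells and human mesenchymal stem cells. Paired agents were dosed in half-log steps down from about clinical Cmax, or from 10 microM where Cmax was unknown.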

[1] = second compound 0.0316 µM, first compound 0.0316 µM
[2] = second compound 0.0316 µM, first compound 0.1 µM
[3] = second compound 0.1 µM, first compound 0.0316 µM
[4] = second compound 0.1 µM, first compound 0.1 µM
[5] = second compound 0.316 µM, first compound 0.0316 µM
[6] = second compound 0.316 µM, first compound 0.1 µM
[7] = second compound 1 µM, first compound 0.0316 µM
[8] = second compound 1 µM, first compound 0.1 µM
[9] = second compound 3.16 µM, first compound 0.0316 µM
[10] = second compound 3.16 µM, first compound 0.1 µM
[11] = second compound 10 µM, first compound 0.0316 µM
[12] = second compound 10 µM, first compound 0.1 µM
[13] = second compound 0.0316 µM, first compound 0.316 µM
[14] = second compound 0.0316 µM, first compound 1 µM
[15] = second compound 0.0316 µM, first compound 3.16 µM
[16] = second compound 0.0316 µM, first compound 10 µM
[17] = second compound 0.1 µM, first compound 0.316 µM
[18] = second compound 0.1 µM, first compound 1 µM
[19] = second compound 0.1 µM, first compound 3.16 µM
[20] = second compound 0.1 µM, first compound 10 µM
[21] = second compound 0.316 µM, first compound 0.316 µM
[22] = second compound 0.316 µM, first compound 1 µM
[23] = second compound 0.316 µM, first compound 3.16 µM
[24] = second compound 0.316 µM, first compound 10 µM
[25] = second compound 1 µM, first compound 0.316 µM
[26] = second compound 1 µM, first compound 1 µM
[27] = second compound 1 µM, first compound 3.16 µM
[28] = second compound 1 µM, first compound 10 µM
[29] = second compound 3.16 µM, first compound 0.316 µM
[30] = second compound 3.16 µM, first compound 1 µM
[31] = second compound 3.16 µM, first compound 3.16 µM
[32] = second compound 3.16 µM, first compound 10 µM
[33] = second compound 10 µM, first compound 0.316 µM
[34] = second compound 10 µM, first compound 1 µM
[35] = second compound 10 µM, first compound 3.16 µM
[36] = second compound 10 µM, first compound 10 µM
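Note: spheroids exposed to drugs for seven days before readout.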
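Throughout, for viability, T/C: 100% = DMSO vehicle control wells.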

Cn1ncnc1[C@H]1c2n[nH]c(=O)c3cc(F)cc(c23)N[C@@H]1c1ccc(F)cc1 + CN1CCN(c2cc(C(=O)Nc3cc4cc(-c5cnn(C)c5)ccc4cn3)ccn2)CC1
IC50 (second compound 0.0316 µM): > 100 nM | IC50 (second compound 0.1 µM): > 100 nM | IC50 (second compound 0.316 µM): < 0.316 nM | IC50 (second compound 1 µM): < 0.316 nM | IC50 (second compound 3.16 µM): < 0.316 nM | IC50 (second compound 10 µM): < 0.316 nM | viability, T/C (second compound 0.0316 µM, first compound 0.000316 µM): 97.4% | viability, T/C (second compound 0.0316 µM, first compound 0.001 µM): 101% | viability, T/C (second compound 0.0316 µM, first compound 0.00316 µM): 110% | viability, T/C (second compound 0.0316 µM, first compound 0.01 µM): 104% | viability, T/C [1]: 113% | viability, T/C [2]: 104% | viability, T/C (second compound 0.1 µM, first compound 0.000316 µM): 79.5% | viability, T/C (second compound 0.1 µM, first compound 0.001 µM): 92.6% | viability, T/C (second compound 0.1 µM, first compound 0.00316 µM): 103% | viability, T/C (second compound 0.1 µM, first compound 0.01 µM): 87.4% | viability, T/C [3]: 95.9% | viability, T/C [4]: 83.8% | viability, T/C (second compound 0.316 µM, first compound 0.000316 µM): 5.88% | viability, T/C (second compound 0.316 µM, first compound 0.001 µM): 9.73% | viability, T/C (second compound 0.316 µM, first compound 0.00316 µM): 10.4% | viability, T/C (second compound 0.316 µM, first compound 0.01 µM): 9.1% | viability, T/C [5]: 9.56% | viability, T/C [6]: 8.15% | viability, T/C (second compound 1 µM, first compound 0.000316 µM): 0.17% | viability, T/C (second compound 1 µM, first compound 0.001 µM): 0.23% | viability, T/C (second compound 1 µM, first compound 0.00316 µM): 0.15% | viability, T/C (second compound 1 µM, first compound 0.01 µM): 0.12% | viability, T/C [7]: 4.07% | viability, T/C [8]: 0.15% | viability, T/C (second compound 3.16 µM, first compound 0.000316 µM): 0.48% | viability, T/C (second compound 3.16 µM, first compound 0.001 µM): 0.5% | viability, T/C (second compound 3.16 µM, first compound 0.00316 µM): 0.41% | viability, T/C (second compound 3.16 µM, first compound 0.01 µM): 0.33% | viability, T/C [9]: 0.23% | viability, T/C [10]: 0.84% | viability, T/C (second compound 10 µM, first compound 0.000316 µM): 0.23% | viability, T/C (second compound 10 µM, first compound 0.001 µM): 1.99% | viability, T/C (second compound 10 µM, first compound 0.00316 µM): 0.17% | viability, T/C (second compound 10 µM, first compound 0.01 µM): 0.22% | viability, T/C [11]: 0.17% | viability, T/C [12]: 0.18%

Nc1ccn(C2OC(CO)C(O)C2(F)F)c(=O)n1 (stereo unspecified) + CN1CCN(c2cc(C(=O)Nc3cc4cc(-c5cnn(C)c5)ccc4cn3)ccn2)CC1
IC50 (second compound 0.0316 µM): < 31.6 nM | IC50 (second compound 0.1 µM): < 31.6 nM | IC50 (second compound 0.316 µM): < 31.6 nM | IC50 (second compound 1 µM): < 31.6 nM | IC50 (second compound 3.16 µM): < 31.6 nM | IC50 (second compound 10 µM): < 31.6 nM | viability, T/C [1]: 27.6% | viability, T/C [2]: 15.1% | viability, T/C [13]: 15.8% | viability, T/C [14]: 11.4% | viability, T/C [15]: 9.09% | viability, T/C [16]: 6.12% | viability, T/C [3]: 24.4% | viability, T/C [4]: 15.4% | viability, T/C [17]: 11.5% | viability, T/C [18]: 11.9% | viability, T/C [19]: 5.33% | viability, T/C [20]: 4.86% | viability, T/C [5]: 4.07% | viability, T/C [6]: 3.72% | viability, T/C [21]: 4.47% | viability, T/C [22]: 2.24% | viability, T/C [23]: 1.5% | viability, T/C [24]: 0.93% | viability, T/C [7]: 1.32% | viability, T/C [8]: 0.15% | viability, T/C [25]: 2.17% | viability, T/C [26]: 0.1% | viability, T/C [27]: 0.13% | viability, T/C [28]: 0.13% | viability, T/C [9]: 0.98% | viability, T/C [10]: 3.09% | viability, T/C [29]: 0.39% | viability, T/C [30]: 0.24% | viability, T/C [31]: 1.1% | viability, T/C [32]: 0.29% | viability, T/C [11]: 0.28% | viability, T/C [12]: 0.41% | viability, T/C [33]: 0.24% | viability, T/C [34]: 0.83% | viability, T/C [35]: 0.25% | viability, T/C [36]: 0.23%

O=C(c1cc(Cc2n[nH]c(=O)c3ccccc23)ccc1F)N1CCN(C(=O)C2CC2)CC1 + CN1CCN(c2cc(C(=O)Nc3cc4cc(-c5cnn(C)c5)ccc4cn3)ccn2)CC1
IC50 (second compound 0.0316 µM): > 10000 nM | IC50 (second compound 0.1 µM): > 10000 nM | IC50 (second compound 0.316 µM): < 31.6 nM | IC50 (second compound 1 µM): < 31.6 nM | IC50 (second compound 3.16 µM): < 31.6 nM | IC50 (second compound 10 µM): < 31.6 nM | viability, T/C [1]: 97.5% | viability, T/C [2]: 93.4% | viability, T/C [13]: 94.5% | viability, T/C [14]: 119% | viability, T/C [15]: 106% | viability, T/C [16]: 91.2% | viability, T/C [3]: 79.5% | viability, T/C [4]: 82% | viability, T/C [17]: 86.8% | viability, T/C [18]: 89.6% | viability, T/C [19]: 83.5% | viability, T/C [20]: 80.8% | viability, T/C [5]: 7.7% | viability, T/C [6]: 9.07% | viability, T/C [21]: 12.2% | viability, T/C [22]: 13.9% | viability, T/C [23]: 9.53% | viability, T/C [24]: 7.3% | viability, T/C [7]: 0.24% | viability, T/C [8]: 0.27% | viability, T/C [25]: 0.24% | viability, T/C [26]: 0.2% | viability, T/C [27]: 2.03% | viability, T/C [28]: 0.16% | viability, T/C [9]: 0.76% | viability, T/C [10]: 0.67% | viability, T/C [29]: 1.9% | viability, T/C [30]: 0.61% | viability, T/C [31]: 1.44% | viability, T/C [32]: 0.45% | viability, T/C [11]: 0.43% | viability, T/C [12]: 0.39% | viability, T/C [33]: 0.38% | viability, T/C [34]: 0.33% | viability, T/C [35]: 0.7% | viability, T/C [36]: 0.32%
